According to ChEMBL document CHEMBL1151824, “Semisynthesis and biological activity of stemofoline alkaloids” (2009):
≈ marks a conversion by molar mass, not a printed value.

Legend:
[1] = target: Acetylcholinesterase (Homo sapiens) (UniProt P22303); assay: Inhibition of AChE assessed as white zone of inhibition after 20 mins by TLC bioautography
Pseudomonas aeruginosa = assay: Antimicrobial activity against Pseudomonas aeruginosa ATCC 27853 after 24 hrs by broth dilution technique; type: functional
Candida albicans = assay: Antimicrobial activity against Candida albicans ATCC 90028 after 24 hrs by broth dilution technique; type: functional; conditions: ATCC 90028, 24 h
Staphylococcus aureus = assay: Antimicrobial activity against Staphylococcus aureus ATCC 25923 after 24 hrs by broth dilution technique; type: functional
[2] = Pseudomonas aeruginosa, ATCC 27853, 24 h, read-out: MIC

Chain of Acetylcholinesterase (Homo sapiens) (P22303 whole entry): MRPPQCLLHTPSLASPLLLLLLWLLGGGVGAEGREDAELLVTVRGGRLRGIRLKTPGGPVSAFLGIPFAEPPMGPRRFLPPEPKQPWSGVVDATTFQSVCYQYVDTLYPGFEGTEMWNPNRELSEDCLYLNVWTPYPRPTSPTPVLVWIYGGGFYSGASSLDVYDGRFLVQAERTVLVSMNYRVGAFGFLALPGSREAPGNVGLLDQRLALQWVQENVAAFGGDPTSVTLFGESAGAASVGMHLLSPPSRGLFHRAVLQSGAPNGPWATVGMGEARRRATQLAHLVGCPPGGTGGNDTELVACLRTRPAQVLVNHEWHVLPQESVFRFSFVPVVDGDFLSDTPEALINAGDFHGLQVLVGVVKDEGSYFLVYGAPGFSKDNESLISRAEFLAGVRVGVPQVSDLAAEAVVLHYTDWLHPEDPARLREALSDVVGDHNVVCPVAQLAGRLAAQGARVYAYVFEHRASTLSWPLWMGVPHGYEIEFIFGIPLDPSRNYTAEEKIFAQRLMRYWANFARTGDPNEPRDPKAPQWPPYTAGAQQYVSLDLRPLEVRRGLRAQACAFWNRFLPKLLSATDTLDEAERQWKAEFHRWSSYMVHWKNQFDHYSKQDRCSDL

| Compound | MIC [1] | MIC (Pseudomonas aeruginosa; [2]) | MIC (Candida albicans) | MIC (Staphylococcus aureus; ATCC 25923, 24 h) | also measured |
| --- | --- | --- | --- | --- | --- |
| CC/C=C/C12C3CC4C5[C@@H](C)/C(=C6/OC(=O)C(C)=C6OC)O[C@]5(O3)C1CCN42 (stereo partly drawn) | 1.3 ×10⁻² nmol | ≥ 125 µg/mL | – | – | – |
| COC1=C(C)C(=O)O/C1=C1\O[C@@]23O[C@H]4C[C@@H]([C@H]2[C@@H]1C)N1CC[C@H]3[C@@]41/C=C/C(C)O (mixture of isomers; 2) [listing 1 of 2 here] | 2.5 ×10⁻¹ nmol | – | – | – | – |
| COC1=C(C)C(=O)O/C1=C1\O[C@@]23O[C@H]4C[C@@H]([C@H]2[C@@H]1C)N1CC[C@H]3[C@@]41CC[C@@H](C)O (mixture of isomers) | 2.5 ×10⁻¹ nmol | 62.5 µg/mL | ≥ 125 µg/mL | ≥ 125 µg/mL | – |
| COC1=C(C)C(=O)O/C1=C1\O[C@@]23O[C@H]4C[C@@H]([C@H]2[C@@H]1C)N1CC[C@H]3[C@@]41CCC(C)O (mixture of isomers) | 2.5 ×10⁻² nmol | ≥ 125 µg/mL | ≥ 125 µg/mL | ≥ 125 µg/mL | – |
| COC1=C(C)C(=O)O/C1=C1\O[C@@]23O[C@H]4C[C@@H]([C@H]2[C@@H]1C)N1CC[C@H]3[C@@]41C (stereo in doubt; 15) [METHYLSTEMOFOLINE] | – | ≥ 125 µg/mL | ≥ 125 µg/mL | ≥ 125 µg/mL | – |
| COC1=C(C)C(=O)O/C1=C1\O[C@@]23O[C@H]4C[C@@H]([C@H]2[C@@H]1C)N1CC[C@H]3[C@@]41/C=C/C(C)O (mixture of isomers; 2) [listing 2 of 2 here] | – | – | – | – | MIC (Pseudomonas aeruginosa): >=125 ug ml-1 |
| COC1=C(C)C(=O)O/C1=C1\O[C@@]23O[C@H]4C[C@@H]([C@H]2[C@@H]1C)N1CC[C@H]3[C@@]41C (stereo in doubt; 3) | 2.9 ×10⁻¹ nmol | – | – | – | – |
| C[C@@H]1[C@H](O)[C@@H](C)/C=C/C=C/C=C/C=C/C=C/C=C/C=C/[C@H](O[C@@H]2O[C@H](C)[C@@H](O)[C@H](N)[C@@H]2O)C[C@@H]2O[C@](O)(C[C@@H](O)C[C@@H](O)[C@H](O)CC[C@@H](O)C[C@@H](O)CC(=O)O[C@H]1C)C[C@H](O)[C@H]2C(=O)O [AMPHOTERICIN B] | – | – | 0.35 µg/mL (≈ 0.379 µM) | – | – |
| CNC(=O)Oc1ccc2c(c1)[C@]1(C)CCN(C)[C@@H]1N2C | 3.6 ×10⁻⁴ nmol | – | – | – | – |
| COC1=C(C)C(=O)O/C1=C1\O[C@@]23O[C@H]4C[C@@H]([C@H]2[C@@H]1C)N1CC[C@H]3[C@@]41/C=C/C(C)O (mixture of isomers; 1) | – | 62.5 µg/mL | ≥ 125 µg/mL | ≥ 125 µg/mL | – |
| GENTAMICIN | – | – | – | – | MIC (Pseudomonas aeruginosa): 1.41 µg/mL; MIC (Staphylococcus aureus): 1.41 µg/mL |
